According to ChEMBL document CHEMBL1201862, “PubChem BioAssay data set” (2004):
Active and inactive are the calls of the source.

Key:
Cytochrome P450 2C9 = Cytochrome P450 2C9 (Homo sapiens, UniProt P11712)
Cytochrome P450 3A4 = Cytochrome P450 3A4 (Homo sapiens, UniProt P08684);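 also: CYP3A4 tested as one member of a cytochrome P450 panel screen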
Cytochrome P450 1A2 = biological target: T1, Cytochrome P450 1A2 (Homo sapiens, UniProt P05177);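 also: PubChem cytochrome P450 panel assay, CYP1A2 panel member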
T1 sequence (P05177 whole entry): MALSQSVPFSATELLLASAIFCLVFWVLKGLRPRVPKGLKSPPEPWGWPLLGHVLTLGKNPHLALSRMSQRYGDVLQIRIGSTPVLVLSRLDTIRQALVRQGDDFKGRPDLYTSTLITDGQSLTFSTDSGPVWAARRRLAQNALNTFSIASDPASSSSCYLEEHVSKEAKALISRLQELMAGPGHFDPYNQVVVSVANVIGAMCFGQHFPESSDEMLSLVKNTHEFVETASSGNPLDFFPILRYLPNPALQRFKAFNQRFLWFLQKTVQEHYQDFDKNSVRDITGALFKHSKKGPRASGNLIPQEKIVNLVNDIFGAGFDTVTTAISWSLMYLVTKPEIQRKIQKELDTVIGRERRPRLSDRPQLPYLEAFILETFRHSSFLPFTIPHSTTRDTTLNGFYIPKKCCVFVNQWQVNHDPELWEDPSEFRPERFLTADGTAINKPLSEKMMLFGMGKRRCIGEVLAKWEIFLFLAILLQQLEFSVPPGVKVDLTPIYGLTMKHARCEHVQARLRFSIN

Cytochrome P450 2D6 = Cytochrome P450 2D6 (Homo sapiens, UniProt P10635);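 also: CYP2D6 member of a cytochrome P450 panel assay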
Sequence of Cytochrome P450 2D6 (P10635 whole entry): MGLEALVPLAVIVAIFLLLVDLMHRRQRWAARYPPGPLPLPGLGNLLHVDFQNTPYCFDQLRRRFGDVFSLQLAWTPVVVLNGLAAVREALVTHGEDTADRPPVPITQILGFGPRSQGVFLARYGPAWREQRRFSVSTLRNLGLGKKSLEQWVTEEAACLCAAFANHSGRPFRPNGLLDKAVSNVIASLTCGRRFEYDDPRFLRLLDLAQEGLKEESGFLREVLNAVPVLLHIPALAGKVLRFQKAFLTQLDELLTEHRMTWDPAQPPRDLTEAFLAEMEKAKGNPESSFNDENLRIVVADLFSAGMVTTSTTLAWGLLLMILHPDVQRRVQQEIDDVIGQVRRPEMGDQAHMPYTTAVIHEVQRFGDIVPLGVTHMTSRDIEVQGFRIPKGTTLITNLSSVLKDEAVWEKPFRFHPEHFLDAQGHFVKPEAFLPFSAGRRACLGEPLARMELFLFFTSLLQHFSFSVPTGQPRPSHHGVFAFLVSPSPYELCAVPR

Cytochrome P450 2C19 = Cytochrome P450 2C19 (Homo sapiens, UniProt P33261); test: Cytochrome panel assay with activity outcomes. Panel member name: p450-cyp2c19 Compounds with AC50 equal or less than 10 uM are considered active; type: functional; details: read-out: AC50
Sequence of Cytochrome P450 2C19 (P33261 whole entry): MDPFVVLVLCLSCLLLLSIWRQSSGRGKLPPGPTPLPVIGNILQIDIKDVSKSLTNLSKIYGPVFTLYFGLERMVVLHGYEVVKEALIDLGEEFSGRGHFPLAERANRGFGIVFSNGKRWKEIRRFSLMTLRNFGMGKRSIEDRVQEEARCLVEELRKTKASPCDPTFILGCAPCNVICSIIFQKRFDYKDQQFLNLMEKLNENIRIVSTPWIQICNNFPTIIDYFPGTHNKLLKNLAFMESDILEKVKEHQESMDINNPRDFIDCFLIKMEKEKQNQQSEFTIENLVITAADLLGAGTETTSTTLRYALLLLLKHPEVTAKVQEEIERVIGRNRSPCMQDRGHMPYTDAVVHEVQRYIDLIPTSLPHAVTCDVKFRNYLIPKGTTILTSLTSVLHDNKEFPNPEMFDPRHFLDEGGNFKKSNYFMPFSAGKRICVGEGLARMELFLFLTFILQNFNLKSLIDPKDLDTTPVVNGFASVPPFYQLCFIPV

Prothrombin = Prothrombin (Homo sapiens, UniProt P00734); test: Thrombin 1536 HTS Dose Response Confirmation. [Related pubchem assays: 1046 (Thrombin 1536 HTS; hits were confirmed in this assay)]; type: functional
[1] = biological target: Luciferin 4-monooxygenase (Photinus pyralis, UniProt P08659); test: inhibition of purified Photinus pyralis luciferase – biochemical, luminescence, dose response (AID 1891)
Sequence of Luciferin 4-monooxygenase (P08659 whole entry): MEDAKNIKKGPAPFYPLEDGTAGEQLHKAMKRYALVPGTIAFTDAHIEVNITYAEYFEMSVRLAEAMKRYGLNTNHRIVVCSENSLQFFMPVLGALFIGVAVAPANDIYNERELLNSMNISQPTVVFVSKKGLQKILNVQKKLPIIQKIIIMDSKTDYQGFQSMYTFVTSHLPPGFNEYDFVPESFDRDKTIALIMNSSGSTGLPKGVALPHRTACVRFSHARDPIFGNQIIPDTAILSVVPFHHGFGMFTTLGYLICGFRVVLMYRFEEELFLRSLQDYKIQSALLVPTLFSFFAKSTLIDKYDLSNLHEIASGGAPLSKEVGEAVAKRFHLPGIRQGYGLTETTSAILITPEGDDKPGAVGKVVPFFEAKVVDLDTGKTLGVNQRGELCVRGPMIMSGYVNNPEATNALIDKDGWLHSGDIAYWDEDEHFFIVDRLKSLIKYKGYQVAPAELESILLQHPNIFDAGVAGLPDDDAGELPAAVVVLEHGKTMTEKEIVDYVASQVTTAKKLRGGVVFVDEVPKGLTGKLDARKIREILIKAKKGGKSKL

[2] = inhibition of ADAM10 peptide cleavage – biochemical, FRET peptide substrate, recombinant human ADAM10, selectivity assay for ADAM17 exosite inhibitor project, dose response (AID 743259);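 also: ADAM10 enzyme cleaving a FRET peptide substrate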
[3] = biological target: Disintegrin and metalloproteinase domain-containing protein 17 (Homo sapiens, UniProt P78536); test: exosite inhibitors of ADAM17, dose response, biochemical (AID 743260)
Sequence of Disintegrin and metalloproteinase domain-containing protein 17 (P78536 whole entry, the tested form may be a part): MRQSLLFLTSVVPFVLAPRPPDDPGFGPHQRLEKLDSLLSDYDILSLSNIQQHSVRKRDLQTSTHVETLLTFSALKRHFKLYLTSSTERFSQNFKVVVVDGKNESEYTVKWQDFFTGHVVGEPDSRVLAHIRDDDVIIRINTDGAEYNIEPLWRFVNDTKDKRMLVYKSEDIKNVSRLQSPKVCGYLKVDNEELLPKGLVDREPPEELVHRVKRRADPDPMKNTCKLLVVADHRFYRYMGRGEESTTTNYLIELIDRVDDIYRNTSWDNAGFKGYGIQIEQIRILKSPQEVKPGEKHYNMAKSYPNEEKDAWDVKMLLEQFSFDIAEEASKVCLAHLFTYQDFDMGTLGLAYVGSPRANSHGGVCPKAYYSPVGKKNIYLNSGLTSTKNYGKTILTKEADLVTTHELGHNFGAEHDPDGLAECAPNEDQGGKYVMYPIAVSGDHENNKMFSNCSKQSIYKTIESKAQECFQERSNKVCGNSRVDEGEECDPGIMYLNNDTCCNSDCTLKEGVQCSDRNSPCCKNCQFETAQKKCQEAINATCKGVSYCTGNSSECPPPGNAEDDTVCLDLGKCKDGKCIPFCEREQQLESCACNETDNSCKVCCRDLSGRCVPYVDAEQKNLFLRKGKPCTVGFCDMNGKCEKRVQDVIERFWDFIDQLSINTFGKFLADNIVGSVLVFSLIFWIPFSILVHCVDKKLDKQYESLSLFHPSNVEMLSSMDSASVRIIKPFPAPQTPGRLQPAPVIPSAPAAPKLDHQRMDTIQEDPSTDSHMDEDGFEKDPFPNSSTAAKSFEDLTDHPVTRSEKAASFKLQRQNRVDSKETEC

[4] = A cytotoxicity screen of small molecule inhibitors of the PhoP region in Salmonella typhi identified in the primary screen. [Related pubchem assays: 1850, 1864, 1985 ]; type: functional
[5] = viability of uninfected HEp-2 cells – cell-based, HTS, cytotoxicity control for RSV inhibitor project, dose response (AID 2410); type: functional; details: human respiratory syncytial virus
[6] = biological target: Eukaryotic translation initiation factor 4E (Mus musculus, UniProt P63073); test: blockers of eIF4G binding by eIF4E – biochemical, TR-FRET, dose response (AID 855); type: functional;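 also: potency for disrupting eIF4E binding to eIF4GI seen as loss of FRET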
Sequence of Eukaryotic translation initiation factor 4E (P63073 whole entry): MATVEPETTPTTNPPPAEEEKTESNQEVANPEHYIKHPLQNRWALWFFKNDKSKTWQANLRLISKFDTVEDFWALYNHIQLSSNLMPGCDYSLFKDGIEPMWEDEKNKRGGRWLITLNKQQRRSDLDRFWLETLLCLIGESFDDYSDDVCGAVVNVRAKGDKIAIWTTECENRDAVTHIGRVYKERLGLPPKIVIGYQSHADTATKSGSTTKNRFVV

[7] = biological target: T2, Ubiquitin-conjugating enzyme E2 N (Homo sapiens, UniProt P61088); type: functional;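 also: Dose-response confirmation in a TR-FRET assay detecting UBC13-driven polyubiquitin chain formation, inhibition measured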
T2 sequence (P61088 whole entry): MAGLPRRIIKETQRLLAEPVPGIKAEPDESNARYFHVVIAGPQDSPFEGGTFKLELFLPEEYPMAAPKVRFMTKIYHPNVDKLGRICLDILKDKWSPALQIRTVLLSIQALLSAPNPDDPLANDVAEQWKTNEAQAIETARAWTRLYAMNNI

[8] = Luminescence Cell-Based Dose Retest to Confirm Inhibitors of Cancer Stem Cells. [Related pubchem assays (depositor defined):AID2717, AID2721]; type: functional; details: Homo sapiens
[9] = general mammalian cell viability loss – inhibitor set, cherry-pick, set 2, cytotoxicity control for miR-122 modulator project, dose response (AID 720697); type: functional, cell-based
Protein skinhead-1 = biological target: T3, Protein skinhead-1 (Caenorhabditis elegans, UniProt P34707); type: functional
T3 sequence (P34707 whole entry): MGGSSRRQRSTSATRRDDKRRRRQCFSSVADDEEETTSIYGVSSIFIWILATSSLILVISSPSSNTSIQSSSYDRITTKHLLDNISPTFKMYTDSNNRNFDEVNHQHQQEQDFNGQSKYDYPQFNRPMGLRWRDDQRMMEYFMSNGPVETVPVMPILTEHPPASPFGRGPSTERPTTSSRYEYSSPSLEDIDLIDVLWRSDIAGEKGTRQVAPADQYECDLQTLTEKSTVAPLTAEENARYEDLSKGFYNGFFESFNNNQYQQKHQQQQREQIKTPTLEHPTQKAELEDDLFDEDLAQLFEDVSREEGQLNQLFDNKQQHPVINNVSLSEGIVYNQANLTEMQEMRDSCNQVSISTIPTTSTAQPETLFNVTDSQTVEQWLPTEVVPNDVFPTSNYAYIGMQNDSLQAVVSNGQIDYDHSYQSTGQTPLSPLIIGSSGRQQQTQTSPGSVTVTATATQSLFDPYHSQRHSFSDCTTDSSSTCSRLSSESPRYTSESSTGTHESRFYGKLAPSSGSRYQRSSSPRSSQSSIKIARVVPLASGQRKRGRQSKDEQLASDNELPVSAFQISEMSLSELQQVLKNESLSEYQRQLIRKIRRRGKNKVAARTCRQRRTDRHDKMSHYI

[10] = Trypanosoma cruzi growth suppression in host cells – NIH3T3 host cells, beta-gal luminescence, confirmation (AID 2044); type: functional, cell-based;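 also: intracellular parasites grown in NIH/3T3 mouse fibroblasts as host cells; luminescent beta-galactosidase reporter signal from transgenic T. cruzi replicating inside host cells; inhibitors lower the luminescence signal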
[11] = NIH3T3 cell viability loss – ATP luminescence, mouse fibroblasts, counter-screen, dose response (AID 2010); type: functional, cell-based;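 also: cells exposed to compound for about 90 hours before reading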
Estrogen receptor beta = Estrogen receptor beta (Homo sapiens, UniProt Q92731); test: blockers of SRC-3 recruitment to ERβ – biochemical, ELISA, streptavidin-HRP readout, orthogonal assay, confirmation (AID 1060)
Sequence of Estrogen receptor beta (Q92731 whole entry): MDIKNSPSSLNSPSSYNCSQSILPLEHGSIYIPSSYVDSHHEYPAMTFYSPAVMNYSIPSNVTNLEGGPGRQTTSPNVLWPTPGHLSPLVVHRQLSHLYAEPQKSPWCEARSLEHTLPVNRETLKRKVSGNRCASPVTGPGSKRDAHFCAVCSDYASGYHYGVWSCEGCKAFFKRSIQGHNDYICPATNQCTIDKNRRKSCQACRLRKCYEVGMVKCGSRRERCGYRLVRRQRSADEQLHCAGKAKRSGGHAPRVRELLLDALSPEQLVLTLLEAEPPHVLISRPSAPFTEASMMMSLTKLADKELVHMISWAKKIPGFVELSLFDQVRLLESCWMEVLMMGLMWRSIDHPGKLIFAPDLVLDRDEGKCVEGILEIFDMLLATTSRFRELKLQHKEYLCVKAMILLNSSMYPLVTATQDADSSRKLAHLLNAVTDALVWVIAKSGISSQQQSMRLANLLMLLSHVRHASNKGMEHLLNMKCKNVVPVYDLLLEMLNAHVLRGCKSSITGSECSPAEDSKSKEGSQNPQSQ

P388 = test: cells; type: functional; details: Mus musculus
SN12K1 = test: cells; type: functional; details: Homo sapiens
P388/ADR = test: cells; type: functional; details: Mus musculus
[12] = P. falciparum Dd2 growth inhibitors, dose response, SYBR Green, cherry-picked samples (AID 1159567); type: functional, cell-based
[13] = toxicity to human hepatoma HepG2 cells – cell-based, cherry-picked samples, cytotoxicity control, dose response (AID 1159577); type: functional

Sequence of Cytochrome P450 3A4 (P08684 whole entry): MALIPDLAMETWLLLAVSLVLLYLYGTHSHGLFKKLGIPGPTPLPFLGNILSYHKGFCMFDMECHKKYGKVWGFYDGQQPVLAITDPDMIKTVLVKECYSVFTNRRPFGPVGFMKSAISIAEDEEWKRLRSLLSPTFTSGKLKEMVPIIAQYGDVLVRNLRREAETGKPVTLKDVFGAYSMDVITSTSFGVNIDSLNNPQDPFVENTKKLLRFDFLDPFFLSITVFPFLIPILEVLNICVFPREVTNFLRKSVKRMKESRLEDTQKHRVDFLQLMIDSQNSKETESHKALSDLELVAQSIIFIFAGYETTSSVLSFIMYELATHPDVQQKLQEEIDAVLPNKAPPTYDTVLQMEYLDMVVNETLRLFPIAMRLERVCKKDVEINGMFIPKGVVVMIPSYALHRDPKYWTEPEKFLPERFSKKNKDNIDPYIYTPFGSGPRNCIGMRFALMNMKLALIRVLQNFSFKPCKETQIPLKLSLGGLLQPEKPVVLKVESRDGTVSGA
Sequence of Cytochrome P450 2C9 (P11712 whole entry): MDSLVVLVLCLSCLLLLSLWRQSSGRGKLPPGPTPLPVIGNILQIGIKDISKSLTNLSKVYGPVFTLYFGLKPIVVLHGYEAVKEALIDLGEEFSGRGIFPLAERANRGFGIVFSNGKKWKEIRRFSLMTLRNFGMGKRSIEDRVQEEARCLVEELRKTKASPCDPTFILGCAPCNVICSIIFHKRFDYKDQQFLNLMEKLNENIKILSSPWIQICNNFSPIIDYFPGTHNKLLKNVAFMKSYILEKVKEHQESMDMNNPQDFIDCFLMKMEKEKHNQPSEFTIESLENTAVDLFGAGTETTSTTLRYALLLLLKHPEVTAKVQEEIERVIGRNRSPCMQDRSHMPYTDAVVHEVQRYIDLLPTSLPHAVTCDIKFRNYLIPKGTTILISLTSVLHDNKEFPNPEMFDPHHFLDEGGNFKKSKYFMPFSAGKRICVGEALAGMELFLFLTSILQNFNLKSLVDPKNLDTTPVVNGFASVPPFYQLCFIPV

C[C@]12Cc3cn4c(nc3C=C1CC[C@H]1[C@@H]2CC[C@@]2(C)[C@H]1CC[C@@]2(O)C#N)nc1ccccc14
AC50 (Cytochrome P450 2C9): 10 µM (inconclusive)
AC50 (Cytochrome P450 3A4): inconclusive
AC50 (Cytochrome P450 1A2): 15.8 µM (inconclusive)
AC50 (Cytochrome P450 2D6): 25.1 µM (inconclusive)
AC50 (Cytochrome P450 2C19): 7.94 µM (inconclusive)

O=C(COC(=O)c1n[nH]c2ccccc12)Nc1cccc(S(=O)(=O)N2CCOCC2)c1
IC50 (Prothrombin): 1.11 µM (active)
EC50 [1]: > 112 µM (not active)

O=C(Nc1cc(Cl)ccc1O)C1CC(c2c(F)cccc2Cl)=NO1 (stereo unspecified)
IC50 [2]: > 69.5 µM (inactive)
IC50 [3]: > 69.5 µM (inactive)

CN(c1ccc(OCc2ccc([N+](=O)[O-])cc2)cc1)S(=O)(=O)c1ccccc1
IC50 [2]: > 69.5 µM (inactive)
IC50 [3]: > 69.5 µM (inactive)

Cc1c(CC(=O)N2CCC(C(N)=O)CC2)c(=O)oc2cc3c(cc12)CCC1(CCCCC1)O3
EC50 [4]: > 50 µM (active)

Clc1cccc(NCc2nnc(SCc3ccc(Cl)cc3Cl)o2)c1
CC50 [5]: 19.1 µM (active)
IC50 [2]: 25.4 µM (inactive)
IC50 [3]: > 69.5 µM (inactive)

O=C(CCc1ccccc1)n1nc(-c2ccco2)nc1SCc1ccccc1
IC50 (Prothrombin): 0.133 µM (active)

O=C(O)C1CC(c2ccccc2F)=NO1 (stereo unspecified)
IC50 [6]: > 64 µM (inactive)

CCN1CCN(CCNC(=O)c2ccc3c(c2)N(Cc2ccc(F)cc2)C(=O)/C(=C/c2ccccc2)S3)CC1
IC50 [7]: > 20 µM (inactive)
IC50 [6]: 50 µM (inactive)
AC50 [8]: 3.61 µM (active)

N#CCCn1c2ccccc2c2nc3ccccc3nc21
EC50 [4]: > 50 µM (active)

N#Cc1c(N)nc2c(c1-c1cccs1)CCCC2
AC50 [9]: 6.16 µM (active)

Cc1nc2cc(C(=O)N3CCC4(CC3)OCCO4)ccc2n1-c1cccc(F)c1
EC50 [4]: > 50 µM (active)

c1ccc(Oc2cc(-c3ccccc3)ncn2)cc1
IC50 (Protein skinhead-1): 17.4 µM (active)
AC50 (Cytochrome P450 3A4): inconclusive

COc1ccc(Cl)cc1NC(=O)CN(C)CC(=O)Nc1ccccc1C(F)(F)F
EC50 [4]: > 50 µM (active)

COc1ccc(C2=NS(=O)(=O)N(C)C(C(=O)Nc3ccc(C)cc3)=C2)cc1
IC50 [2]: 56.7 µM (inactive)
IC50 [3]: > 69.5 µM (inactive)

Cn1c(SCC(=O)NN=C(S)Nc2ccccc2)nnc1-c1ccncc1
IC50 (Prothrombin): > 50 µM (not active)

O=C(NCCc1ccncc1)Nc1ccc(Cl)c(Cl)c1
EC50 [10]: 1.34 µM (active)
EC50 [4]: > 50 µM (active)
EC50 [11]: > 60 µM (not active)

Cc1nc2ncnn2c(N2CCN(C(=O)Cc3cccs3)CC2)c1C
IC50 (Estrogen receptor beta): 107 nM (not active)

COc1ccc(NC(=O)C2CCN(S(=O)(=O)c3c(C)noc3/C=C/N(C)C)CC2)cc1
IC50 [2]: 23.9 µM (inactive)
IC50 [3]: > 69.5 µM (inactive)

O=C(Cn1c(=O)c2ccccc2n(CC(=O)N2CCCCC2)c1=O)N1CCCCC1
AC50 [9]: 6.5 µM (active)

O=C(CC(c1ccc(F)cc1)c1ccco1)N1CCOCC1 (stereo unspecified)
IC50 (Prothrombin): > 50 µM (not active)

Cc1cccc(C(=O)N2CCC(c3nc(-c4ccc(S(=O)(=O)N5CCOCC5)cc4)no3)CC2)c1
AC50 (Cytochrome P450 2C9): 39.8 µM (inconclusive)
AC50 (Cytochrome P450 3A4): inconclusive
AC50 (Cytochrome P450 2D6): 0.00316 µM (inconclusive)
AC50 (Cytochrome P450 2C19): 15.8 µM (inconclusive)

COc1nc(SC)nc2c1cnn2C1OC(C(O)CO)C(OC)C1O (stereo unspecified)
GI50 (P388): > 39.4 µM (inactive)
GI50 (SN12K1): > 54.3 µM (inactive)
GI50 (P388/ADR): 41.3 µM (inactive)

O=C(NN1C(=O)CS(=O)(=O)C1c1ccc(Cl)c(Cl)c1)c1ccncc1 (stereo unspecified)
GI50 (P388): 25.6 µM (inactive)
GI50 (SN12K1): > 100 µM (inactive)
GI50 (P388/ADR): 36.6 µM (inactive)

C[N+](C)([O-])CCOc1cc2c(c3ccccc13)-c1ccccc1C2=O
GI50 (P388): 6.19 µM (inactive)
GI50 (SN12K1): 4.37 µM (inactive)
GI50 (P388/ADR): 8.79 µM (inactive)

CN(C)CCNC(=O)c1cccc2ccc(-c3ccc(F)cc3)nc12
GI50 (P388): 0.61 µM (active)
GI50 (SN12K1): 2.96 µM (inactive)
GI50 (P388/ADR): 1.75 µM (inactive)

CCC(/C=C/C1OC(=O)C=CC1C)=C\C(C)C/C=C/C(C)=C/C(C)C(=O)C(C)C(O)C(C)C/C(C)=C/C(=O)O (stereo unspecified)
GI50 (P388): 0.914 µM (active)
GI50 (SN12K1): 1.56 µM (inactive)

O=[N+]([O-])c1ccc2[nH]c3c(-c4ccccc4)nccc3c2c1
GI50 (P388): 10.9 µM (inactive)
GI50 (SN12K1): 20.5 µM (inactive)
GI50 (P388/ADR): 12.9 µM (inactive)

CN(C)CCCNC(=O)C[C@H]1CC[C@H]2[C@H](COc3ccc(NC(=O)NC4CCCC4)cc3C(=O)N2C)O1
AC50 [9]: 0.509 µM (active)

CCNC(=O)C[C@H]1CC[C@H]2[C@H](COc3ccc(NS(C)(=O)=O)cc3C(=O)N2C)O1
AC50 [9]: 3.57 µM (active)

C/C=C/c1ccc([C@@H]2[C@@H](CO)N(c3nc(CC)cs3)[C@@H]2CNC(C)C)cc1
AC50 [12]: 0.751 µM (active)
AC50 [13]: 20.8 µM (active)

OC[C@H]1[C@@H](c2ccc(/C=C/c3ccccc3)cc2)[C@@H]2CN(Cc3ccncc3)CCCCN12
AC50 [12]: 2.32 µM (active)
AC50 [13]: 12.7 µM (active)

Cc1ccc(-c2ccc3c(c2)O[C@@H](CN(C)C(=O)Nc2ccc(C(F)(F)F)cc2)[C@H](C)CN([C@H](C)CO)S3(=O)=O)cc1
AC50 [12]: 5.26 µM (active)
AC50 [13]: > 39 µM (inactive)
